In ChEMBL document CHEMBL2034905, “Synthesis of benzimidazolyl-1,3,4-oxadiazol-2ylthio-N-phenyl (benzothiazolyl) acetamides as antibacterial, antifungal and antituberculosis agents” (Eur J Med Chem, 2012):
In brackets after ≈: the same amount, converted by molar mass.

Assays:
[1] = tested on: Shigella flexneri; assay: Antibacterial activity against Shigella flexneri MTCC 1457 at 100 ug/disc by paper disc diffusion technique; assay type: functional; conditions: read-out: IZ
[2] = tested on: Mycobacterium tuberculosis; assay: Antituberculosis activity against Mycobacterium tuberculosis H37Rv by BACTEC MGIT method; assay type: functional
[3] = tested on: Proteus vulgaris; assay: Antibacterial activity against Proteus vulgaris MTCC 1771 at 100 ug/disc by paper disc diffusion technique; assay type: functional; conditions: read-out: IZ
[4] = tested on: Proteus vulgaris; assay: Antibacterial activity against Proteus vulgaris MTCC 1771 by agar streak dilution method; assay type: functional
[5] = tested on: Staphylococcus aureus; assay: Antibacterial activity against Staphylococcus aureus MTCC 96 at 100 ug/disc by paper disc diffusion technique; assay type: functional; conditions: read-out: IZ
[6] = tested on: Candida albicans; assay: Antifungal activity against Candida albicans MTCC 183 by agar streak dilution method; assay type: functional
[7] = tested on: Klebsiella pneumoniae; assay: Antibacterial activity against Klebsiella pneumoniae MTCC 109 at 100 ug/disc by paper disc diffusion technique; assay type: functional; conditions: read-out: IZ
[8] = tested on: Bacillus cereus; assay: Antibacterial activity against Bacillus cereus MTCC 430 by agar streak dilution method; assay type: functional
[9] = tested on: Bacillus cereus; assay: Antibacterial activity against Bacillus cereus MTCC 430 at 100 ug/disc by paper disc diffusion technique; assay type: functional; conditions: read-out: IZ
[10] = tested on: Aspergillus niger; assay: Antifungal activity against Aspergillus niger MTCC 282 at 100 ug/disc by paper disc diffusion technique; assay type: functional; conditions: read-out: IZ
[11] = tested on: Salmonella typhi; assay: Antibacterial activity against Salmonella typhi MTCC 733 by agar streak dilution method; assay type: functional, Salmonella enterica subsp. enterica serovar Typhi; conditions: Salmonella enterica
[12] = tested on: Escherichia coli; assay: Antibacterial activity against Escherichia coli MTCC 739 at 100 ug/disc by paper disc diffusion technique; assay type: functional; conditions: read-out: IZ
[13] = tested on: Staphylococcus aureus; assay: Antibacterial activity against Staphylococcus aureus MTCC 96 by agar streak dilution method; assay type: functional
[14] = tested on: Mycobacterium tuberculosis; assay: Antituberculosis activity against Mycobacterium tuberculosis H37Rv at 6.25 ug/ml by Lowenstein-Jensen method; assay type: functional
[15] = tested on: Klebsiella pneumoniae; assay: Antibacterial activity against Klebsiella pneumoniae MTCC 109 by agar streak dilution method; assay type: functional
[16] = tested on: Aspergillus niger; assay: Antifungal activity against Aspergillus niger MTCC 282 by agar streak dilution method; assay type: functional
[17] = tested on: Aspergillus fumigatus; assay: Antifungal activity against Aspergillus fumigatus MTCC 343 by agar streak dilution method; assay type: functional
[18] = tested on: Shigella flexneri; assay: Antibacterial activity against Shigella flexneri MTCC 1457 by agar streak dilution method; assay type: functional
[19] = tested on: Mycobacterium tuberculosis; assay: Antituberculosis activity against Mycobacterium tuberculosis H37Rv by Lowenstein-Jensen method; assay type: functional
[20] = tested on: Aspergillus clavatus; assay: Antifungal activity against Aspergillus clavatus MTCC 1323 at 100 ug/disc by paper disc diffusion technique; assay type: functional; conditions: read-out: IZ
[21] = tested on: Salmonella typhi; assay: Antibacterial activity against Salmonella typhi MTCC 733 at 100 ug/disc by paper disc diffusion technique; assay type: functional, Salmonella enterica subsp. enterica serovar Typhi; conditions: Salmonella enterica, read-out: IZ
[22] = tested on: Candida albicans; assay: Antifungal activity against Candida albicans MTCC 183 at 100 ug/disc by paper disc diffusion technique; assay type: functional; conditions: read-out: IZ
[23] = tested on: Aspergillus fumigatus; assay: Antifungal activity against Aspergillus fumigatus MTCC 343 at 100 ug/disc by paper disc diffusion technique; assay type: functional; conditions: read-out: IZ
[24] = tested on: Aspergillus clavatus; assay: Antifungal activity against Aspergillus clavatus MTCC 1323 by agar streak dilution method; assay type: functional
[25] = tested on: Pseudomonas aeruginosa; assay: Antibacterial activity against Pseudomonas aeruginosa MTCC 741 at 100 ug/disc by paper disc diffusion technique; assay type: functional; conditions: read-out: IZ
[26] = tested on: Pseudomonas aeruginosa; assay: Antibacterial activity against Pseudomonas aeruginosa MTCC 741 by agar streak dilution method; assay type: functional
[27] = tested on: Escherichia coli; assay: Antibacterial activity against Escherichia coli MTCC 739 by agar streak dilution method; assay type: functional

Row | SMILES | zone of inhibition at 100 µg/disc [1] | MIC [2] | zone of inhibition at 100 µg/disc [3] | MIC [4] | zone of inhibition at 100 µg/disc [5] | MIC [6] | zone of inhibition at 100 µg/disc [7] | MIC [8] | zone of inhibition at 100 µg/disc [9] | zone of inhibition at 100 µg/disc [10] | MIC [11] | zone of inhibition at 100 µg/disc [12] | MIC [13] | inhibition at 6.25 µg/mL [14] | MIC [15] | MIC [16] | MIC [17] | MIC [18] | MIC [19] | zone of inhibition at 100 µg/disc [20] | also measured
1 | O=C(CSc1nnc(Cn2cnc3ccccc32)o1)Nc1ccccc1 | 13 mm | > 6.25 µg/mL | 13 mm | 100 µg/mL (≈ 274 µM) | 12 mm | 100 µg/mL (≈ 274 µM) | 13 mm | 100 µg/mL (≈ 274 µM) | < 10 mm | < 10 mm | 100 µg/mL (≈ 274 µM) | 13 mm | 100 µg/mL (≈ 274 µM) | 95% | 100 µg/mL (≈ 274 µM) | 100 µg/mL (≈ 274 µM) | 100 µg/mL (≈ 274 µM) | 100 µg/mL (≈ 274 µM) | 500 µg/mL (≈ 1370 µM) | < 10 mm | zone of inhibition at 100 µg/disc [21]: < 10 mm; zone of inhibition at 100 µg/disc [22]: < 10 mm; zone of inhibition at 100 µg/disc [23]: 13 mm; MIC [24]: 100 µg/mL (≈ 274 µM); zone of inhibition at 100 µg/disc [25]: 21 mm; MIC [26]: 50 µg/mL (≈ 137 µM); MIC [27]: 100 µg/mL (≈ 274 µM)
2 | O=C(CSc1nnc(Cn2cnc3ccccc32)o1)Nc1ccc(Cl)cc1 | 22 mm | > 6.25 µg/mL | 20 mm | 50 µg/mL (≈ 125 µM) | 15 mm | 100 µg/mL (≈ 250 µM) | 21 mm | 50 µg/mL (≈ 125 µM) | 11 mm | < 10 mm | 100 µg/mL (≈ 250 µM) | 15 mm | 50 µg/mL (≈ 125 µM) | 98% | 50 µg/mL (≈ 125 µM) | 100 µg/mL (≈ 250 µM) | 100 µg/mL (≈ 250 µM) | 12.5 µg/mL (≈ 31.3 µM) | 25 µg/mL (≈ 62.5 µM) | 14 mm | zone of inhibition at 100 µg/disc [21]: 17 mm; zone of inhibition at 100 µg/disc [22]: 14 mm; zone of inhibition at 100 µg/disc [23]: 16 mm; MIC [24]: 100 µg/mL (≈ 250 µM); zone of inhibition at 100 µg/disc [25]: 26 mm; MIC [26]: 12.5 µg/mL (≈ 31.3 µM); MIC [27]: 100 µg/mL (≈ 250 µM)
3 | O=C(CSc1nnc(Cn2cnc3ccccc32)o1)Nc1ccc(Br)cc1 | 22 mm | > 6.25 µg/mL | 17 mm | 100 µg/mL (≈ 225 µM) | 23 mm | 100 µg/mL (≈ 225 µM) | 22 mm | 12.5 µg/mL (≈ 28.1 µM) | 26 mm | 16 mm | 50 µg/mL (≈ 113 µM) | 19 mm | 6.25 µg/mL (≈ 14.1 µM) | 99% | 50 µg/mL (≈ 113 µM) | 100 µg/mL (≈ 225 µM) | 25 µg/mL (≈ 56.3 µM) | 25 µg/mL (≈ 56.3 µM) | 12.5 µg/mL (≈ 28.1 µM) | 23 mm | zone of inhibition at 100 µg/disc [21]: 22 mm; zone of inhibition at 100 µg/disc [22]: 16 mm; zone of inhibition at 100 µg/disc [23]: 24 mm; MIC [24]: 50 µg/mL (≈ 113 µM); zone of inhibition at 100 µg/disc [25]: 26 mm; MIC [26]: 12.5 µg/mL (≈ 28.1 µM); MIC [27]: 50 µg/mL (≈ 113 µM)
4 | O=C(CSc1nnc(Cn2cnc3ccccc32)o1)Nc1ccc(F)cc1 | 23 mm | > 6.25 µg/mL | 14 mm | 50 µg/mL (≈ 130 µM) | 18 mm | 100 µg/mL (≈ 261 µM) | 22 mm | 50 µg/mL (≈ 130 µM) | 16 mm | 19 mm | 50 µg/mL (≈ 130 µM) | 18 mm | 25 µg/mL (≈ 65.2 µM) | 97% | 50 µg/mL (≈ 130 µM) | 50 µg/mL (≈ 130 µM) | 50 µg/mL (≈ 130 µM) | 12.5 µg/mL (≈ 32.6 µM) | 50 µg/mL (≈ 130 µM) | 17 mm | zone of inhibition at 100 µg/disc [21]: 21 mm; zone of inhibition at 100 µg/disc [22]: 16 mm; zone of inhibition at 100 µg/disc [23]: 23 mm; MIC [24]: 100 µg/mL (≈ 261 µM); zone of inhibition at 100 µg/disc [25]: 24 mm; MIC [26]: 12.5 µg/mL (≈ 32.6 µM); MIC [27]: 50 µg/mL (≈ 130 µM)
5 | O=C(CSc1nnc(Cn2cnc3ccccc32)o1)Nc1ccc(I)cc1 | 20 mm | > 6.25 µg/mL | 22 mm | 25 µg/mL (≈ 50.9 µM) | 17 mm | 100 µg/mL (≈ 204 µM) | 23 mm | 100 µg/mL (≈ 204 µM) | 15 mm | < 10 mm | 100 µg/mL (≈ 204 µM) | 12 mm | 50 µg/mL (≈ 102 µM) | 95% | 50 µg/mL (≈ 102 µM) | 100 µg/mL (≈ 204 µM) | 100 µg/mL (≈ 204 µM) | 50 µg/mL (≈ 102 µM) | 250 µg/mL (≈ 509 µM) | 13 mm | zone of inhibition at 100 µg/disc [21]: 16 mm; zone of inhibition at 100 µg/disc [22]: 12 mm; zone of inhibition at 100 µg/disc [23]: 17 mm; MIC [24]: 100 µg/mL (≈ 204 µM); zone of inhibition at 100 µg/disc [25]: 22 mm; MIC [26]: 25 µg/mL (≈ 50.9 µM); MIC [27]: 100 µg/mL (≈ 204 µM)
